Measurements as given in PubChem BioAssay AID540271 (Broad Institute, 2011).
Active and inactive are the calls of the source. The rule behind the calls is not given here.

Each compound was assayed on S. cerevisiae expressing PfHSP40, growth rescue, plate reader (assay: S cerevisiae expressing PfHSP40, growth rescue, cherry pick dose confirmatory, plate reader (AID 540271);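 note: yeast growth read after three days of incubation at 30 °C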).
In the case of `C=CCN(CC=C)C(=S)NC(=O)c1ccc(C)c(Br)c1`, the AC50 is reported as 6.72 µM. `Cc1ccc(C)c(NS(=O)(=O)c2cc(C(=O)N3CCc4ccccc4C3)ccc2Cl)c1` was tested, and the AC50 was 6.77 µM. Compound `C=CCNc1nc(-c2ccccn2)nnc1-c1ccccc1` has an AC50 of 10.3 µM. With `CCn1nc(/C=C/c2ccccc2)nc2c(=O)n(C)c(=O)nc1-2` the AC50 was 2.36 µM. `CC(NC(=S)NC1CCC(C(C)(C)C)CC1)c1ccccc1` (centres undefined) gave an AC50 of 6.86 µM. In the case of `COc1ccc(N(C(=O)c2ccncc2)S(=O)(=O)c2ccccc2)cc1`, the AC50 is reported as 2.4 µM. Work on `Cc1cccc(N2CCN(C(=O)C3COc4ccccc4O3)CC2)c1C` (centres undefined) yielded an AC50 of 6.72 µM. In the case of `C(=C1c2ccccc2-c2ccccc21)c1ccncc1`, the AC50 is reported as 6.18 µM. `COc1cc(C(=O)ON=C2C3CC4CC(C3)CC2C4)cc(OC)c1OC` showed an AC50 of 5.01 µM. For `O=C(Cc1ccccc1F)Nc1nc(-c2ccc(F)c(F)c2)cs1`, the AC50 was 6.72 µM. `Cc1ccc(C(=O)C(SC(C)(C)C)n2cncn2)cc1` (centres undefined) showed an AC50 of 5.78 µM. With `Oc1c(Br)cc(Br)cc1CNc1ccc(F)cc1` the AC50 was 6.21 µM. For `Cc1nc2ccc(C(=O)NCc3ccc4c(c3)OCO4)cc2s1`, the AC50 was 4.51 µM. Work on `O=C(Nc1ccc(Cl)cc1C(=O)Nc1ccc(Br)cn1)c1ccco1` yielded an AC50 of 3.64 µM. `Cc1ccc(CNC(=O)CSc2ccc(-c3ccccn3)nn2)cc1` showed an AC50 of 4.21 µM. In the case of `CCOC(=O)c1ccc(N2C(=O)CC(N3CCC(O)(c4ccc(Cl)cc4)CC3)C2=O)cc1` (centres undefined), the AC50 is reported as 6.57 µM. In the case of `CC1=C(C)/C(=N\OS(=O)(=O)c2ccc(C)cc2)C=CC1=O`, the AC50 is reported as 5 µM. In the case of `CN(Cc1ccc(Cl)s1)C(=O)CCl`, the AC50 is reported as 6.37 µM. For `CCCCNc1c(-c2cccc(Sc3ccc(OC)cc3)c2)nc2ccccn12`, the AC50 was 8.12 µM. With `COc1cccc2c1C(=O)c1c(O)c3c(c(O)c1C2=O)C[C@@](O)(C(=O)CO)C[C@@H]3O[C@H]1C[C@H](N)[C@H](O)[C@H](C)O1` the AC50 was 6.48 µM. For `C=CCOC(Cn1ccnc1)c1ccc(Cl)cc1Cl` (centres undefined), the AC50 was 1.89 µM. `O=[N+]([O-])c1ccc2c(OCc3nnc(-c4ccccc4Br)o3)ncnc2c1` showed an AC50 of 6.17 µM. Compound `N/C(Cc1ccc(Cl)cc1Cl)=N\OC(=O)c1ccccc1F` has an AC50 of 5.93 µM. `CC(C)(CN1CCc2ccccc2C1)NS(=O)(=O)c1ccc(Cl)cc1` showed an AC50 of 11 µM. `CN(C)S(=O)(=O)c1cccc(NC(=S)NNC(=O)c2cc3ccccc3cc2O)c1` was tested, and the AC50 was 2.86 µM. With `COc1cccc(-n2nc(C#N)c(Cl)cc2=O)c1` the AC50 was 5.59 µM. Work on `CC(C)(C)C(=O)C(Cl)C(=O)Nc1ccccc1` (centres undefined) yielded an AC50 of 5.65 µM. For `COc1ccc2c(c1)OC[C@H]1[C@H]2N2C(=O)c3cc(OC)ccc3NC(=O)[C@@]2(C)[C@H]1c1ccccc1`, the AC50 was 4.84 µM. In the case of `CN(C)c1ccc(C=c2c3ccccc3n3c2c2c([n+]3C)CCCC2)cc1`, the AC50 is reported as 2.64 µM. Compound `O=C(c1ccc(-c2ccccc2)c(F)c1)C1CCCN(C(=O)c2cncs2)C1` (centres undefined) has an AC50 of 5.68 µM. Compound `CC(=O)NC(c1ccc(C)cc1)c1cc([N+](=O)[O-])c2cccnc2c1O` (centres undefined) has an AC50 of 8.83 µM. `Cc1cc(Nc2ccccc2)nn1C(=O)c1ccccc1` was tested, and the AC50 was 5.94 µM. In the case of `O=S(=O)(Nc1ccccc1)c1ccc(Oc2ncc(C(F)(F)F)cc2Cl)cc1`, the AC50 is reported as 6.09 µM. In the case of `COC(=O)C1=C(C)NC(C)=C(C(=O)OCC(C)C)C1c1ccccc1[N+](=O)[O-]` (centres undefined), the AC50 is reported as 5.87 µM. Work on `Nc1cc2nc3ccccc3oc-2cc1=O` yielded an AC50 of 1.52 µM. `O=C(O)c1c(NC(=O)N2CCCC2)sc2c1CCCC2` gave an AC50 of 3.42 µM. `CC1CCc2sc(-c3n[nH]c(=S)o3)cc2C1` (centres undefined) gave an AC50 of 5.69 µM. For `O=C1c2cc(F)ccc2-n2c1nc1ccccc1c2=O`, the AC50 was 0.927 µM. In the case of `O=c1cnn([C@@H]2O[C@H](CO)[C@@H](O)[C@H]2O)c(=O)[nH]1`, the AC50 is reported as > 12 µM (inactive). For `CCCCNc1c(-c2ccc(-c3ccc(OC)cc3)c(OC)c2)nc2ccccn12`, the AC50 was 5.48 µM. `CN(C)c1ccc(C=c2c3cc(O)ccc3n3c2cc(-c2ccccc2)[n+]3C)cc1` showed an AC50 of 2.88 µM. `O=C(C1=C(Nc2ccccc2)c2ccccc2S(=O)(=O)N1)c1ccccc1` was tested, and the AC50 was 5.09 µM. In the case of `O=[N+]([O-])c1cc(Cl)cc(/C=N/NC(=S)Nc2ccc(S(=O)(=O)N3CCOCC3)cc2)c1O`, the AC50 is reported as 3.13 µM. Work on `Cc1ccc(-c2c3c(nc4sc(C(N)=O)c(N)c24)CCCC3)o1` yielded an AC50 of 6.13 µM. `CCCCCCN1N=C(C)C(C(=O)c2ccc(Cl)cc2)C1=O` (centres undefined) showed an AC50 of 3.23 µM. With `CC/C(=N/NC(=O)c1ccccc1O)c1c(C)[nH]n(-c2ccccc2)c1=O` the AC50 was 0.705 µM. For `Oc1ccccc1-c1nnc(SCCN2CCOCC2)n1Cc1ccccc1`, the AC50 was 5.94 µM. Work on `O=[N+]([O-])c1ccc(S(=O)(=O)c2ccccc2)nc1` yielded an AC50 of 2.23 µM. Work on `CCCCCCn1c(=O)c(C(=O)Nc2ncccc2C)c(O)c2ccccc21` yielded an AC50 of 3.03 µM. With `C=C1C(=O)C23CCC4C(C)(C(=O)OC)CCCC4(C)C2CCC1(O)C3` (centres undefined) the AC50 was 11.6 µM. `CC1Oc2ccccc2C=C1/C=N/Nc1ccc(C(=O)O)cc1` (centres undefined) showed an AC50 of 10.1 µM. In the case of `COC(=O)c1ccc(N2C(=O)CC(N(C)CCc3ccc(OC)c(OC)c3)C2=O)cc1` (centres undefined), the AC50 is reported as 5.2 µM. Compound `Oc1ccc(N=Nc2ccc3c(c2)OCCO3)c2cccnc12` has an AC50 of 1.85 µM. For `CCCCCOc1ccc(CSc2n[nH]c(C)n2)cc1`, the AC50 was 3.81 µM. `Cc1cc(C(=O)N/N=C/c2cc(Br)cc([N+](=O)[O-])c2O)c2ccccc2n1` was tested, and the AC50 was 3.37 µM. Work on `CC(C)N1CCN(c2ccc(OC[C@H]3CO[C@](Cn4cncn4)(c4ccc(Cl)cc4Cl)O3)cc2)CC1` yielded an AC50 of 2 µM. With `CCN(CC)c1ccc(/C=C/c2ccc3ccc(OC)cc3[n+]2CC)cc1` the AC50 was 5.78 µM. In the case of `O=C(O)c1ccc(N/N=C/C=C/c2ccccc2)cc1`, the AC50 is reported as 3.72 µM. `CC(C)(C)c1ccc(-n2nc(C#N)c(Cl)cc2=O)cc1` was tested, and the AC50 was 6.03 µM.
